The structures appear in SMILES notation.

This assay relates to m2 receptor. Nature of the assay: Expression of m2 receptors on CHO cells transfected with DNA for the m2 receptor (tritiated QNB binding). It is filed as cell-based. The arrangement: key: Active: “active” means increase over the control; Inactive: “inactive” means same effect as control. The settings on record: DMSO control, range of final concentrations. An excerpt:
Substituted sapogenins of the present invention have also been tested for activity in a number of in-vitro assays. The assays/experiments that were considered of key importance in determining possible activity in the elevation of membrane bound receptor numbers were as follows: • Chinese hamster ovary (CHO) cells transfected with the a DNA fragment coding for a muscarinic receptor. The cell line used for the majority of the experiments was a cell line expressing the m2 receptor. The methods and the results of these experiments are now described in turn.
The effects of various compounds on the expression of m2 receptors on CHO cells transfected with DNA for the m2 receptor were investigated. Receptor numbers were assayed using tritiated QNB binding and subtracting non-specific binding. Compounds were dissolved in DMSO and DMSO was used as a control. Compounds were tested at a range of final concentrations. Compounds were also tested in the presence and absence of tamoxifen to try to distinguish an oestrogen receptor mediated mechanism The results are summarised in the Table I below.
For the molecule `CC1CCC2(OC1)OC1CC3C4CCC5CC(N=[N+]=[N-])CCC5(C)C4CCC3(C)C1C2C` (stereo not drawn) [3α-azido-5β,20α,22α,25R-spirostane], the “Effect on receptor expression” value is recorded as “Active”. The same measure for `C[C@@H]1CC[C@@]2(OC1)O[C@H]1C[C@H]3[C@@H]4CC[C@@H]5CC(F)(F)CC[C@]5(C)[C@H]4CC[C@]3(C)[C@H]1[C@@H]2C` [3,3-difluoro-5β,20α,22α,25R-spirostane]: “Active”; for `C[C@@H]1CC[C@@]2(OC1)O[C@H]1C[C@H]3[C@@H]4CC[C@H]5C[C@H](F)CC[C@]5(C)[C@H]4CC[C@]3(C)[C@H]1[C@@H]2C` [3α-fluoro-5α,20α,22α,25R-spirostane]: “Inactive”; for `C[C@@H]1CC[C@@]2(OC1)O[C@H]1C[C@H]3[C@@H]4CC[C@@H]5C[C@H](N)CC[C@]5(C)[C@H]4CC[C@]3(C)[C@H]1[C@@H]2C` [3α-amino-5β,20α,22α,25R-spirostane]: “Active”. For `C[C@@H]1CC[C@@]2(OC1)O[C@H]1C[C@H]3[C@@H]4CC[C@@H]5C[C@H](NS(C)(=O)=O)CC[C@]5(C)[C@H]4CC[C@]3(C)[C@H]1[C@@H]2C` [3α-methylsulphonylamino-5β,20α,22α,25R-spirostane], the “Effect on receptor expression” value was “Active”. Regarding `C[C@@H]1CC[C@@]2(OC1)O[C@H]1C[C@H]3[C@@H]4CC[C@@H]5C[C@@H](F)CC[C@]5(C)[C@H]4CC[C@]3(C)[C@H]1[C@@H]2C` [3β-fluoro-5β,20α,22α,25R-spirostane], the “Effect on receptor expression” value was “Active”. The same measure for `C[C@H]1[C@H]2[C@H](C[C@H]3[C@@H]4CC[C@@H]5C[C@@H](O)CC[C@]5(C)[C@H]4CC[C@]23C)O[C@]12CCC(C)(C)CO2` [25-methyl-5β,20α,22α-spirostane-3β-ol]: “Active”.

These data come from patent publication US20100087411A1, “SUBSTITUTED SAPOGENINS AND THEIR USE” (Phytopharm PLC, priority 2000, published 2010).
